The text below walks through data of US20240315937A1, “STABLE EFFICIENT COSMETIC PREPARATIONS” (YISSUM RESEARCH DEVELOPMENT COMPANY OF THE HEBREW …, priority 2021, published 2024).

Data set [1] in a line: Force degradation of 2% CBD cream (CBD assay by HPLC). It is filed as physicochemical. Conditions: vs untreated reference. How it is done:
Samples were prepared by the following method: • 1. 200 mg 2% CBD cream vs. Blank (7 mL vials), • 2. Subjected to Oxidation/Base/Acid/Heat/UV conditions (see below), • 3. Mixing with 4 mL DMSO, • 4. Sonication, 30 min, • 5. Shaking, 1 h, • 6. Centrifugation at 4000 rpm, 5 min, • 7. Filtration by 0.22 μm PTFE, • 8. HPLC sample preparation and HPLC protocol as above.
Samples were subjected to the following force degradation conditions and tested for CBD content: • Heat: 200 mg cream was heated at 100° C. (oil bath) for 6 h; • UV: 200 mg cream was exposed to the sun for 3 h; • Acidic conditions: 200 mg cream was treated with 150 μl 9M HCl (aq.) for 1 h and neutralized with 150 μl 9M NaOH; • Basic conditions: […] μl 1M HCl; • Oxidation: 200 mg of cream was treated with 1 ml 30% H2O2 for 2 h; CBD assay % was calculated according to the untreated reference.

The nature of data set [2]: Dissolution of CBD in oil solvents of the creams. It is filed as physicochemical. The conditions noted are these: CBD 2%; medium-chain triglycerides (MCT) and sesame oil. How it is done:
The main tested parameters included the following: • 1. Reduction of ethanol: Ethanol is generally considered a co-solvent of CBD. The concentration of ethanol was reduced from initial to final preparations, starting from 3.6% and 0.9% to no ethanol in the final preparations, where CBD was dissolved directly in sesame oil (see for example CBD #34 in Table 13 below). • 2. Selection of an antioxidant: The selected antioxidants were BHT and propyl gallate, in various combinations and proportions. […] Due to this property, the final preparations contained 0.05% BHT (see Table 13, CBD #34). • 3. Selection of an oil: Oil is a known solvent for CBD. Various oils were tested as optional solvents in the cosmetic creams of the invention. […] Both MCT and sesame oil have antioxidants properties (see Table 13, CBD #34).

Take `C=C(C)[C@@H]1CCC(C)=C[C@H]1c1c(O)cc(CCCCC)cc1O` [CBD, cannabidiol]: the CBD assay in data set [1] (Acid: 200 mg 2% CBD cream, 150 μl 9M HCl, 1 h) is given as 67.7%; in data set [1] (Base: 200 mg 2% CBD cream, 200 μl 1M NaOH, time point 1 h), 81.9%; in data set [1] (Heat: 200 mg 2% CBD cream at 100° C. (oil bath), 6 h), 87.8%; in data set [1] (Oxidation: 200 mg 2% CBD cream, 1 ml 30% H2O2, 2 h), 63.5%; in data set [1] (UV: 200 mg 2% CBD cream exposed to the sun, 3 h), 98.4%. Further, the “dissolution of CBD in oil solvent” value in data set [2] is “complete dissolution”.
